# Reference: US20180085371A1, “COMBINATION OF PANOBINOSTAT AND RUXOLITINIB IN THE TREATMENT OF CANCER SUCH AS A MYELOPROLIFERATIVE NEOPLASM” (Novartis AG, priority 2011, published 2018)
# Values joined by “and” are separate entries in the source; they are usually repeats but may differ in a detail not shown here. Equal values may be shown once. Read-outs that look alike come from different tables or passages of the source.
# What was measured:
# [1] = test system: JAK2V617F bone marrow transduced cells; experiment: Histology of bone marrow and spleen (cellularity, splenic architecture, reticulin fibrosis) in JAK2V617F bone marrow transplant model; type: in vivo, mouse; conditions: 21 days; for Bone marrow hypercellularity / Splenic architecture: Compound B 8 mg/kg, Compound A 60 mg/kg or both; for Bone marrow hypercellularity: rank Combo>Compound A=Compound B; for Splenic architecture: rank Combo>Compound A>Compound B
# From the text: and spleens were collected, fixed in formalin, trimmed, embedded in paraffin and sectioned at (nominally) 4 μm using a microtome. […] Briefly, the spleen was removed in total, weighed and placed on a dissection tray. The spleen was cut transverse in two halves and two equal pieces were taken from the middle parts using a scalpel. […] Baker, Medite, Switzerland). Fixative volume was at least tenfold in excess compared to tissue volume. […] After a last wash in PBS, the tissues were cut up and set with the surface of interest downwards in a universal histocassette followed by processing in a TPC 15Duo (Tissue Processing Center) for paraffinization. From each tissue paraffin block, several 3 μm thick sections were cut on a sliding or rotary microtome (Mikrom International AG, Switzerland), spread in a 45° C. water-bath, mounted on microscope slides (Polysine, VWR International, Leuven, Belgium), and air-dried in an oven at 37° C. overnight. Dry tissue section slides were taken out of the oven and placed in the slide rack of the linear stainer COT20 (Medite, Switzerland) for fully automated H&E (Haematoxylin &Eosin) staining or processed for immunohistochemistry (IHC) staining. For IHC, tissue section samples were stained with rabbit anti-phospho STAT5 antibody (clone C11C5), and rabbit anti-acetyl Histone H3 antibody (Millipore, MA, USA) coverslipped and air-dried. […] Splenic architecture was evaluated as destroyed (1+) or preserved (0). Presence of myeloid, erythroid and adipocytes cells was evaluated as 0, 1+, 2+, 3+ based on cellularity. […] Whole slide automated quantitative assessment of p-STAT5-positive and -negative cell nuclei were performed using Definiens eCognition software (eCognition version XD 1.5, Definiens AG, Germany). The results were expressed as percent of positive p-STAT5 nuclei out of total nuclei.
# [2] = Levels post therapy, Example B (UPLC/MS-MS, blood and tissues); type: in vivo, mouse; conditions: mean, N = 9; for concentration at 2 h: Balb/c, mouse, blood, read-out: Blood level 2 hr after final dose
# Method: Concentrations of Compound A and Compound B in plasma and tissues were determined simultaneously by an UPLC/MS-MS assay. Tissues were homogenized in an equal volume of HPLC-Water (Water for chromatography, Merck) using the Fast Prep®-24 system (M.P. Biomedicals, Irvine, Calif., USA). Following addition of 25 μl of internal standard mixture (1 μg/ml) to analytical aliquots (25 μl) of blood or tissues homogenate, the proteins were precipitated by the addition of 200 μl acetonitrile. The supernatant were transferred in a fresh vial. After evaporation to dryness the samples were re-dissolved in 60 μl acetonitrile/water (1/1 v/v). An aliquot (5 μl) of this solution was separated on a ACQUITY UPLC BEH C18 column (Waters™ 1.7 μm particle size, 2.1×50 mm) with a mobile phase consisting of a mixture of 0.1% formic acid in water (solvent A) and 0.1% formic acid in acetonitrile (solvent B). Gradient programming was used with a flow rate of 600 μl/min. After equilibration with 95% solvent A, 5 μl of sample was injected. Following a latency period of 0.25 min., the sample was eluted with a linear gradient of 5-100% solvent B over a period of 0.65 minutes followed by a 0.35 min. hold. The column was prepared for the next sample by re-equilibrating over 0.25 min. to the starting conditions. The column eluent was directly introduced into the ion source of the triple quadrupole mass spectrometer TQDTM (Waters Corporation, Milford, Mass., USA) controlled by Masslynx™ 4.1 software. Electrospray positive ionization (ESI+) multiple reaction monitoring was used for the MS/MS detection of the analyte. Precursor to product ion transition of 307.0→m/z 186.0 for Compound A was used. Simultaneously precursor to product ion transition of 350.1→m/z 142.9 for Compound B was recorded. The limit of quantification (LOQ) for both compounds was set to 9 ng/ml and 9 ng/g for plasma and tissues, respectively (CV and overall bias less than 30%). Regression analysis and further calculations were performed using QuanLynx™ 4.1 (Micromass) and Excel™ 2007 (Microsoft). Concentrations of unknown samples were back-calculated based on the peak area ratios of analyte/IS from a calibration curve constructed using calibration samples spiked in blank blood or tissue obtained from animals treated with vehicle.
# [3] = Body weight change in JAK2V617F bone marrow transplant model; conditions: sacrifice day after 21 days; Compound B 8 mg/kg ip 3 times a week, Compound A 60 mg/kg po q12h, or Combo of both
# Method: Animals were monitored daily and sacrificed in case of major signs of distress (excessive body weight loss over more than 2 consecutive days without improvement, combined with lethargy and piloerection).
# Results shown in the figures and tables represent means±SEM. Percentage change in body weights and absolute values or transformed values (log10, or other as specified) for spleen weights, reticulocyte, WBC counts, Hct and histological data were analyzed by unpaired t-test or Rank-Sum test to compare a single treatment group to vehicle group or one way ANOVA followed by Dunnett's test to compare treatment groups to vehicle group. Multiple comparisons were done using the Tukey's test. All comparisons were done on sacrifice day. The significance level was set to p<0.05. Calculations were performed using GraphPad Prism for Windows (GraphPad Software Inc.).
# Mice were randomized on day 27 post BMT based on Hct values (67% in average in this experiment, N=9/group) and treated with Compound B (8 mg/kg, 3×/week MWF, i.p.) and Compound A (60 mg/kg, q12h, p.o.) as single agents or combined.
# [4] = Combo Compound A (60 mg/kg) and B (8 mg/kg)
# [5] = single agent: Comp'd B 8 mg/kg or Comp'd A 60 mg/kg
Compound,"Fibrosis score (reticulin staining on sternum sections) ([1]; Compound A 60 mg/kg or combination with Compound B 8 mg/kg, high variability)",Bone marrow hypercellularity [1],Splenic architecture [1],"concentration at 2 h [2, 4] [µM]","concentration at 2 h [2, 5] [µM]","BM level 2 hr after final dose [2, 4] [nmol/g]","Liver level 2 hr after final dose [2, 4] [nmol/g]","Spleen level 2 hr after final dose [2, 4] [nmol/g]","BM level 2 hr after final dose [2, 5] [nmol/g]","Liver level 2 hr after final dose [2, 5] [nmol/g]","Spleen level 2 hr after final dose [2, 5] [nmol/g]",BW change (%) (mean ± SEM) [3]
"N#CC[C@H](C1CCCC1)n1cc(-c2ncnc3[nH]ccc23)cn1 [Compound A, (R)-3-(4-(7H-pyrrolo[2,3-d]pyrimidin-4-yl)-1H-pyrazol-1-yl)-3-cyclopentylpropanenitrile]",tendency to reduce,decrease,improved,4.11,8.18,1.469,3.568,1.575,2.223,6.537,2.566,0.45%
"Cc1[nH]c2ccccc2c1CCNCc1ccc(/C=C/C(=O)NO)cc1 [Compound B, N-hydroxy-3-[4-[[[2-(2-methyl-1H-indol-3-yl)-ethyl]-amino]methyl]phenyl]-2E-2-propenamide]",–,decrease,improved,0.006,0.035,4.398,0.33,15.317,2.704,0.264,10.045,−5% and −4.57%
